Key:
[1] = food pH 5.4; cited from earlier work
[2] = tested on: bacteria, mold, and yeast; experiment: Carbon dioxide production of tortillas from treated dough; details: antimicrobial added to propionic/phosphoric acid preparation
From the text: In the laboratory, shelf life of varying formulations of tortillas can be compared by monitoring the output of carbon dioxide produced by the bacteria, mold, and yeast.
Tortillas were then manufactured from the treated dough.

SMILES	acid undissociated [1] [%]	effectiveness in controlling fermented odor / preventing spoilage [2]
CCC(=O)O [propionic acid]	20	
O=C(O)c1ccccc1 [benzoic acid]	7.75	best qualities for preventing spoilage
